According to US9540702B2, “Stabilization of enzymes with stable coenzymes” (Roche Diabetes Care, Inc., priority 2009, dated 2017):

Key:
[1] = Residual content of coenzyme in glucose detection reagent after storage at 32° C. and 85% relative air humidity; type: physicochemical; settings: 24 weeks storage at 32° C. and 85% relative air humidity
Description: (§1) carbaNAD (FIG. 1A) or NAD were added to the glucose-specific GlucDH. These formulations were each applied to Pokalon foils (Lonza) and, after drying, stored under warm and humid conditions (32° C., 85% relative air humidity). Subsequently, the reaction kinetics and the function curve were determined at regular intervals. In parallel at each of the measurement times a cNAD/NAD analysis and a determination of the residual activity of the enzyme were carried out.
According to this the residual content of cNAD in a glucose detection reagent is still about 80% of the initial value after 24 weeks storage (at 32° C. and 85% relative air humidity), whereas the content of NAD in a glucose detection reagent stabilized with NAD is already reduced to about 35% of the initial value after 5 weeks and, by extrapolation, is reduced to zero after about 17 weeks.

[2] = biological target: glucose dehydrogenase (GlucDH, wild-type) (Bacillus subtilis, UniProt P12310); assay: Residual activity of GlucDH stored dry on Pokalon foils with coenzyme at 32° C., 85% relative air humidity; type: biochemical
Description: as §1
The result of the determination of residual activity of the active enzyme GlucDH after 5 weeks at 32° C. and 85% relative air humidity (FIG. 7A) is completely surprising. The enzyme stabilized with NAD now only has an extremely low enzyme activity (0.5%), whereas the enzyme stabilized with cNAD still has a residual activity of 70% (in each case compared to the samples stored in a refrigerator (KS) with desiccant (TM)). After 24 weeks at 32° C. and 85% relative air humidity (FIG. 7B) the residual activity of the enzyme when stabilized with cNAD is still about 25%.

[3] = biological target: GlucDH_E96G_E170K (GlucDH-mut1) (Bacillus subtilis, UniProt P12310, A229V/A236S/E170K/E96G/Q252K); assay: Residual activity of GlucDH mutant 1 after storage with coenzyme; type: biochemical; settings: 24 weeks at 32° C. and 85% relative air humidity
Description: as §1
(§2) If a mutant is used instead of the wild-type enzyme (from Bacillus subtilis), it is possible to further increase the residual activity of GlucDH. After 24 weeks storage at 32° C. and 85% relative air humidity in the presence of cNAD, the residual activity of a mutant GlucDH_E96G_E170K with the amino acid substitutions glutamic acid→glycine at position 96 and glutamic acid→lysine at position 170 (GlucDH-mut1) of the wild-type enzyme is about 70%, whereas the residual activity of a mutant GlucDH_E170K_K252L with the amino acid substitutions glutamic acid→lysine at position 170 and lysine→leucine at position 252 (GlucDH-mut2) is about 50% (FIG. 8).

[4] = biological target: GlucDH_E170K_K252L (GlucDH-mut2) (Bacillus subtilis, UniProt P12310, A229V/A236S/E170K/Q252L); assay: Residual activity of GlucDH mutant 2 after storage with coenzyme; type: biochemical; settings: 24 weeks at 32° C. and 85% relative air humidity
Description: as §1, §2

[5] = biological target: T1, diaphorase (from porcine heart) (Sus scrofa, UniProt P09623); assay: Diaphorase activity in liquid reagent for lactate dehydrogenase stored at 25° C.; type: biochemical; settings: liquid reagent stored at 25° C.; 2 mM carbaNAD or 0.2 mM NAD; various storage times
T1 construct: 3 U/ml diaphorase (from porcine heart); from tissue; host or cells: porcine heart
T1 sequence (P09623 36-509): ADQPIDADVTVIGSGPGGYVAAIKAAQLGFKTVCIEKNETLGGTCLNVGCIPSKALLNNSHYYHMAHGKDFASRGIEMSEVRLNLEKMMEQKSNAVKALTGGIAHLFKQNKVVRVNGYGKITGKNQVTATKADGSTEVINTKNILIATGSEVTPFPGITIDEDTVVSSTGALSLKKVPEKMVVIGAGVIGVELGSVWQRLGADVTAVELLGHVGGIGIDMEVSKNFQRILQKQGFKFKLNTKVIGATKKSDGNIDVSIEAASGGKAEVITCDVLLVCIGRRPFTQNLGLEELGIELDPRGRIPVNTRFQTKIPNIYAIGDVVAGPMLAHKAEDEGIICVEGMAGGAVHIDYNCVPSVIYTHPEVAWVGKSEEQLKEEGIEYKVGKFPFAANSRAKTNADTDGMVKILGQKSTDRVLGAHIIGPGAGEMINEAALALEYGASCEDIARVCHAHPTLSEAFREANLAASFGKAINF
Description: A liquid reagent which, among others, contained diaphorase, carbaNAD, a tetrazolium salt and lactate was used to determine the activity of lactate dehydrogenase. The detection reagent which was stored in solution at 25° C. contained the following ingredients:
3 U/ml diaphorase (from porcine heart)
2 mM carbaNAD or 0.2 mM NAD
2 mM tetrazolium salt WST-3
0.1 M tricine/HCl, pH 8.8

diaphorase = assay: Diaphorase activity extracted from blood glucose test strips after storage; type: biochemical; settings: blood glucose test strips stored at 32° C. and 30-70% relative air humidity
Description: A composition which, among others, contained glucose dehydrogenase (GlucDH), carbaNAD, diaphorase, nitrosoaniline and phosphomolybdic acid was used to determine blood glucose. Test strips were obtained by applying a first formulation to a polycarbonate foil using a doctor blade (layer height 100 μm), drying the first layer, applying a second formulation to the first layer (doctor blade gap 30 μm), and drying the second layer. The test strips were stored at 32° C. and 30-70% relative air humidity.

[6] = biological target: Glucose dehydrogenase mutant2 (Bacillus subtilis, UniProt P12310, A229V/A236S/E170K/Q252L); assay: Enzyme activity in test strips stored up to 18 weeks (Table 6); type: biochemical
Description: In order to evaluate the stabilization of glucose dehydrogenase and diaphorase by carbaNAD, a number of test strips were prepared in analogy to Example 5.
The test strips were stored over a period of 18 weeks at temperatures of 5° C. (KS, refrigerator), 25° C. (RT), 30° C. (GT), 35° C. (DT) and 45° C. (HT), and the enzyme activity in the test strips was determined at the start of storage (0 weeks), after 6 weeks, after 9 weeks, after 12 weeks and after 18 weeks. The results are shown in Table 6 (glucose dehydrogenase) and in Table 7 (diaphorase).

[7] = biological target: L lactate dehydrogenase (from rabbit) (Oryctolagus cuniculus, UniProt P13491); assay: DSC of coenzyme binding; settings: 3.8 mM ligand; 0.1 M Tris buffer, pH 8.5
malate dehydrogenase = settings: 3.8 mM ligand; 0.5M carbonate buffer, pH 10.0

NC(=O)c1ccc[n+]([C@@H]2C[C@H](COP(=O)([O-])OP(=O)(O)OC[C@H]3O[C@@H](n4cnc5c(N)ncnc54)[C@H](O)[C@@H]3O)[C@@H](O)[C@H]2O)c1 [carbaNAD]
residual content of coenzyme in glucose detection reagent [1]: about 80 % of the initial value
residual activity of GlucDH ([2]; 5 weeks at 32° C. and 85% relative air humidity, compared to samples stored in refrigerator with desiccant): 70%
residual activity of GlucDH ([2]; 24 weeks at 32° C. and 85% relative air humidity): about 25%
residual activity of GlucDH-mut1 [3]: about 70%
residual activity of GlucDH-mut2 [4]: about 50%
residual activity of diaphorase compared to formulation containing NAD [5]: considerably increased residual activity
residual activity of diaphorase compared to formulation containing NAD (diaphorase): considerably increased residual activity
Enzyme activity, glucose dehydrogenase ([6]; 0 weeks (start of storage)): 19.8 U/cm^2
Enzyme activity, glucose dehydrogenase ([6]; DT (35° C.), 6 weeks): 19.8 U/cm^2
Enzyme activity, glucose dehydrogenase ([6]; DT (35° C.), 9 weeks): 20.2 U/cm^2
Enzyme activity, glucose dehydrogenase ([6]; DT (35° C.), 12 weeks): 17.2 U/cm^2
Enzyme activity, glucose dehydrogenase ([6]; DT (35° C.), 18 weeks): 16.9 U/cm^2
Enzyme activity, glucose dehydrogenase ([6]; GT (30° C.), 12 weeks): 17.6 U/cm^2
Enzyme activity, glucose dehydrogenase ([6]; GT (30° C.), 18 weeks): 16.8 U/cm^2
Enzyme activity, glucose dehydrogenase ([6]; HT (45° C.), 6 weeks): 19.0 U/cm^2
Enzyme activity, glucose dehydrogenase ([6]; HT (45° C.), 9 weeks): 18.8 U/cm^2
Enzyme activity, glucose dehydrogenase ([6]; KS (5° C.), 6 weeks): 20.4 U/cm^2
Enzyme activity, glucose dehydrogenase ([6]; KS (5° C.), 9 weeks): 21.2 U/cm^2
Enzyme activity, glucose dehydrogenase ([6]; KS (5° C.), 12 weeks): 18.5 U/cm^2
Enzyme activity, glucose dehydrogenase ([6]; KS (5° C.), 18 weeks): 18.8 U/cm^2
Enzyme activity, glucose dehydrogenase ([6]; RT (25° C.), 6 weeks): 20.7 U/cm^2
Enzyme activity, glucose dehydrogenase ([6]; RT (25° C.), 9 weeks): 21.5 U/cm^2
Enzyme activity, glucose dehydrogenase ([6]; RT (25° C.), 12 weeks): 18.0 U/cm^2
Enzyme activity, glucose dehydrogenase ([6]; RT (25° C.), 18 weeks): 17.7 U/cm^2
TM [7]: 60.2 °C
ΔHcal [7]: 66 kcal/mol
TM (malate dehydrogenase): 43.2 °C
ΔHcal (malate dehydrogenase): 340 kcal/mol
